Assay results taken from PubChem BioAssay AID1963962 (Molecular Pharmacology Branch, DTP, NCI, 2024).
pIC50: −log10 of the molar value.

Tested on: 967376-340-R-J2-PDC multicell spheroid viability
Assay: Anticancer human tumor 967376-340-R-J2-PDC patient-derived colon adenocarcinoma cell line growth inhibition [PI3K]
Conditions: for pIC50: curve of first compound; for viability, T/C: stronger effect = lower value
How it was run: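 We assembled tumor spheroids that included a stromal compartment of HUVEC and MSCs, then exposed them to targeted agents alone and together with PI3K pathway inhibitors. Concentration series descended by half-log from clinically achievable Cmax levels. Viability served as the endpoint.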

[1] = second compound 0.0316 µM, first compound 0.0316 µM
[2] = second compound 0.0316 µM, first compound 0.1 µM
[3] = second compound 0.0316 µM, first compound 0.316 µM
[4] = second compound 0.0316 µM, first compound 1 µM
[5] = second compound 0.0316 µM, first compound 3.16 µM
[6] = second compound 0.0316 µM, first compound 10 µM
[7] = second compound 0.1 µM, first compound 0.0316 µM
[8] = second compound 0.1 µM, first compound 0.1 µM
[9] = second compound 0.1 µM, first compound 0.316 µM
[10] = second compound 0.1 µM, first compound 1 µM
[11] = second compound 0.1 µM, first compound 3.16 µM
[12] = second compound 0.1 µM, first compound 10 µM
[13] = second compound 0.316 µM, first compound 0.0316 µM
[14] = second compound 0.316 µM, first compound 0.1 µM
[15] = second compound 0.316 µM, first compound 0.316 µM
[16] = second compound 0.316 µM, first compound 1 µM
[17] = second compound 0.316 µM, first compound 3.16 µM
[18] = second compound 0.316 µM, first compound 10 µM
[19] = second compound 1 µM, first compound 0.0316 µM
[20] = second compound 1 µM, first compound 0.1 µM
[21] = second compound 1 µM, first compound 0.316 µM
[22] = second compound 1 µM, first compound 1 µM
[23] = second compound 1 µM, first compound 3.16 µM
[24] = second compound 1 µM, first compound 10 µM
[25] = second compound 3.16 µM, first compound 0.0316 µM
[26] = second compound 3.16 µM, first compound 0.1 µM
[27] = second compound 3.16 µM, first compound 0.316 µM
[28] = second compound 3.16 µM, first compound 1 µM
[29] = second compound 3.16 µM, first compound 3.16 µM
[30] = second compound 3.16 µM, first compound 10 µM
[31] = second compound 10 µM, first compound 0.0316 µM
[32] = second compound 10 µM, first compound 0.1 µM
[33] = second compound 10 µM, first compound 0.316 µM
[34] = second compound 10 µM, first compound 1 µM
[35] = second compound 10 µM, first compound 3.16 µM
[36] = second compound 10 µM, first compound 10 µM
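Also: spheroids exposed to agents for 7 days before read-out.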
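For viability, T/C in this document: luminescence used as surrogate of cell viability.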

## C[C@@H](NC(=O)c1ncnc(N)c1Cl)c1ncc(C(=O)Nc2cc(C(F)(F)F)c(Cl)cn2)s1 + CC(Nc1ncnc2nc[nH]c12)c1cc2cccc(Cl)c2c(=O)n1-c1ccccc1
Second compound 0.0316 µM
  pIC50: < 5.00
Second compound 0.1 µM
  pIC50: < 5.00
Second compound 0.316 µM
  pIC50: < 5.00
Second compound 1 µM
  pIC50: < 5.00
Second compound 3.16 µM
  pIC50: < 5.00
Second compound 10 µM
  pIC50: < 5.00
[1]
  viability, T/C: 100%
[2]
  viability, T/C: 129%
[3]
  viability, T/C: 109%
[4]
  viability, T/C: 104%
[5]
  viability, T/C: 101%
[6]
  viability, T/C: 98.9%
[7]
  viability, T/C: 123%
[8]
  viability, T/C: 112%
[9]
  viability, T/C: 90.5%
[10]
  viability, T/C: 102%
[11]
  viability, T/C: 110%
[12]
  viability, T/C: 117%
[13]
  viability, T/C: 92.5%
[14]
  viability, T/C: 102%
[15]
  viability, T/C: 109%
[16]
  viability, T/C: 107%
[17]
  viability, T/C: 96.9%
[18]
  viability, T/C: 110%
[19]
  viability, T/C: 114%
[20]
  viability, T/C: 97.8%
[21]
  viability, T/C: 99.7%
[22]
  viability, T/C: 90.7%
[23]
  viability, T/C: 127%
[24]
  viability, T/C: 106%
[25]
  viability, T/C: 95.9%
[26]
  viability, T/C: 92.2%
[27]
  viability, T/C: 106%
[28]
  viability, T/C: 92.8%
[29]
  viability, T/C: 97.3%
[30]
  viability, T/C: 113%
[31]
  viability, T/C: 79.7%
[32]
  viability, T/C: 97.2%
[33]
  viability, T/C: 106%
[34]
  viability, T/C: 97.1%
[35]
  viability, T/C: 107%
[36]
  viability, T/C: 119%

## Cn1ncc(Cl)c1-c1cc(C(=O)NC(CN)Cc2cccc(F)c2)sc1Cl (stereo unspecified) + CC(Nc1ncnc2nc[nH]c12)c1cc2cccc(Cl)c2c(=O)n1-c1ccccc1
Second compound 0.0316 µM
  pIC50: < 5.00
Second compound 0.1 µM
  pIC50: < 5.00
Second compound 0.316 µM
  pIC50: < 5.00
Second compound 1 µM
  pIC50: 5.02
Second compound 3.16 µM
  pIC50: < 5.00
Second compound 10 µM
  pIC50: 5.18
[1]
  viability, T/C: 99%
[2]
  viability, T/C: 95%
[3]
  viability, T/C: 93.6%
[4]
  viability, T/C: 91.1%
[5]
  viability, T/C: 66.9%
[6]
  viability, T/C: 62.5%
[7]
  viability, T/C: 122%
[8]
  viability, T/C: 97.3%
[9]
  viability, T/C: 104%
[10]
  viability, T/C: 86.7%
[11]
  viability, T/C: 84.8%
[12]
  viability, T/C: 71.1%
[13]
  viability, T/C: 87.2%
[14]
  viability, T/C: 97.7%
[15]
  viability, T/C: 86.9%
[16]
  viability, T/C: 81.4%
[17]
  viability, T/C: 78.3%
[18]
  viability, T/C: 64.6%
[19]
  viability, T/C: 85.3%
[20]
  viability, T/C: 104%
[21]
  viability, T/C: 101%
[22]
  viability, T/C: 86.4%
[23]
  viability, T/C: 79.1%
[24]
  viability, T/C: 48.8%
[25]
  viability, T/C: 101%
[26]
  viability, T/C: 93.7%
[27]
  viability, T/C: 104%
[28]
  viability, T/C: 73.5%
[29]
  viability, T/C: 73.2%
[30]
  viability, T/C: 53.6%
[31]
  viability, T/C: 79.4%
[32]
  viability, T/C: 88.5%
[33]
  viability, T/C: 96.7%
[34]
  viability, T/C: 86.3%
[35]
  viability, T/C: 60.3%
[36]
  viability, T/C: 44.4%

## Cn1ncnc1[C@H]1c2n[nH]c(=O)c3cc(F)cc(c23)N[C@@H]1c1ccc(F)cc1 + CC(Nc1ncnc2nc[nH]c12)c1cc2cccc(Cl)c2c(=O)n1-c1ccccc1
Second compound 0.0316 µM
  pIC50: < 7.00
Second compound 0.1 µM
  pIC50: < 7.00
Second compound 0.316 µM
  pIC50: < 7.00
Second compound 1 µM
  pIC50: < 7.00
Second compound 3.16 µM
  pIC50: < 7.00
Second compound 10 µM
  pIC50: < 7.00
Second compound 0.0316 µM, first compound 0.000316 µM
  viability, T/C: 111%
Second compound 0.0316 µM, first compound 0.001 µM
  viability, T/C: 114%
Second compound 0.0316 µM, first compound 0.00316 µM
  viability, T/C: 90%
Second compound 0.0316 µM, first compound 0.01 µM
  viability, T/C: 107%
[1]
  viability, T/C: 84.7%
[2]
  viability, T/C: 86.7%
Second compound 0.1 µM, first compound 0.000316 µM
  viability, T/C: 103%
Second compound 0.1 µM, first compound 0.001 µM
  viability, T/C: 94.2%
Second compound 0.1 µM, first compound 0.00316 µM
  viability, T/C: 102%
Second compound 0.1 µM, first compound 0.01 µM
  viability, T/C: 109%
[7]
  viability, T/C: 93.4%
[8]
  viability, T/C: 89.5%
Second compound 0.316 µM, first compound 0.000316 µM
  viability, T/C: 83.5%
Second compound 0.316 µM, first compound 0.001 µM
  viability, T/C: 96.5%
Second compound 0.316 µM, first compound 0.00316 µM
  viability, T/C: 78.6%
Second compound 0.316 µM, first compound 0.01 µM
  viability, T/C: 83.4%
[13]
  viability, T/C: 102%
[14]
  viability, T/C: 79.2%
Second compound 1 µM, first compound 0.000316 µM
  viability, T/C: 122%
Second compound 1 µM, first compound 0.001 µM
  viability, T/C: 84.7%
Second compound 1 µM, first compound 0.00316 µM
  viability, T/C: 87.2%
Second compound 1 µM, first compound 0.01 µM
  viability, T/C: 91.7%
[19]
  viability, T/C: 108%
[20]
  viability, T/C: 104%
Second compound 3.16 µM, first compound 0.000316 µM
  viability, T/C: 73.7%
Second compound 3.16 µM, first compound 0.001 µM
  viability, T/C: 73.8%
Second compound 3.16 µM, first compound 0.00316 µM
  viability, T/C: 89.6%
Second compound 3.16 µM, first compound 0.01 µM
  viability, T/C: 71.1%
[25]
  viability, T/C: 83.3%
[26]
  viability, T/C: 87.8%
Second compound 10 µM, first compound 0.000316 µM
  viability, T/C: 89.5%
Second compound 10 µM, first compound 0.001 µM
  viability, T/C: 102%
Second compound 10 µM, first compound 0.00316 µM
  viability, T/C: 81.5%
Second compound 10 µM, first compound 0.01 µM
  viability, T/C: 76.4%
[31]
  viability, T/C: 78%
[32]
  viability, T/C: 73.5%
